# According to patent publication US20230047788A1, “COMPOSITIONS COMPRISING 5-CHOLESTEN-3, 25-DIOL, 3-SULFATE (25HC3S) OR PHARMACEUTICALLY ACCEPTABLE SALT THEREOF AND AT LEAST ONE CYCLIC OLIGOSACCHARIDE” (Virginia Commonwealth University, priority 2016, published 2023):
# How the values were obtained:
# Assay type in all cases: in vivo, C57BL/6J mice
# [1] = system: GI-ARS model (partial shielding irradiation); experiment: Clinical signs and survival in rodent model of gastrointestinal acute radiation syndrome (GI-ARS)
# Experimental: The subjects for the two studies outlined here were (A) Study 1: 20 male C57BL/6J mice (8 weeks of age; 23-28 g) and (B) Study 2: 16 male C57BL/6J mice (8 weeks of age; 23-28 g). Following arrival, all animals were subjected to a health assessment and evaluation was performed in accordance with the standard operating procedures and by technical staff working under the supervision of the clinical veterinarian. An acclimation period of at least 11 days was allowed between receipt of the animals and irradiation to accustom the animals to the laboratory environment.
# A solution formulation of 25HC3S sodium salt and its respective vehicle was used for the study. The Vehicle was a solution of 4% (w/v) hydroxypropyl betadex in 75% (v/v) of 0.9% (w/v) sodium chloride and 25% (v/v) sterile water. 25HC3S sodium salt was pre-dissolved into the Vehicle solution to result in a drug concentration of 5 mg/mL. The 25HC3S solution was ready-to-use at the start of dosing. In Study 1, the vehicle was stored at 2-8° C. whereas the 25HC3S solution was stored at room temperature prior and throughout the study duration; in Study 2, both vehicle and 25HC3S solutions were stored at 2-8° C.
# Partial shielding irradiation (PSI) exposure at a high radiation dose (>10Gy) is an established approach to mimic GI-ARS in mice. Animals were exposed to whole-body irradiation with partial shielding (Day 0) in a custom designed restrainer where their left pelvic limb was extended and maintained in position with an elastic band. The left pelvic limb was shielded with a cerrobend structure. Animals received a whole body irradiation dose with partial shielding of 15.78 Gy (LD50/22) for Study 1 whereas mice were exposed to 15.16 Gy (LD25/22) in Study 2. The dose rate of the ^60Co gamma source was fixed at approximately 60 cGy per minute. The in-life portion of both the studies after PSI was 22 days.
# Study 1: Mice (N=20/group) were administered once daily with 25HC3S (or vehicle) for 7 consecutive days starting on the day following irradiation (Day 1) by subcutaneous injection between scapulas using a 27G needle attached to a syringe. The dose volume was 10 mL/kg for all dose routes and the dose was adjusted based on the most recent body weight. Study 2: Mice (N=16/group) were administered with 25HC3S (or vehicle) for a total of […]. Animals were given drug (or vehicle) once on the day following irradiation (Day 1) and once on Day 4 by subcutaneous injection between scapulas using a 27G needle attached to a syringe. The dose volume was 10 mL/kg for all dose routes and the dose was adjusted based on the most recent body weight.
# Mortality checks were recorded concomitantly with the cage-side observations, during all phases of the study. Mortality checks for all animals were also recorded at least once during the night from Day 5 through Day 8. Clinical signs (ill health, behavioral changes, fur color/consistency changes etc.) were also recorded on all surviving animals twice daily throughout observation period (described in Table 10). Additional clinical observations were performed when deemed necessary. All observations were recorded as cage side clinical signs or detailed clinical examination when possible. A detailed clinical examination was performed on each animal at least as follows: prior to animal assignment, one day prior to irradiation (Day −1) then every 3 days throughout the observation period. […]
# [2] = system: LPS endotoxin shock model; experiment: Survival in rodent model of LPS endotoxin shock; conditions: LPS 5 mg/kg iv; 50 mg/kg 25HC3S ip 2 hours prior to LPS; six days after LPS; N=10
# Experimental: The subjects for the study were 20 male C57BL/6J mice (20-22 weeks of age, 27-35 g).
# A solution formulation of 25HC3S and its respective vehicle was used for the study. The vehicle was a solution of 4% (w/v) hydroxypropyl betadex, 10% (w/v) dextrose, with 10 mM sodium phosphate buffer in sterile water. Vehicle was stored at 2-8° C. storage and placed at room temperature for 30 minutes prior to dosing.
# 25HC3S sodium salt was pre-dissolved into the vehicle solution to result in a drug concentration of 5 mg/mL. The 25HC3S solution was ready-to-use at the start of dosing. It was also stored at 2-8° C. storage and placed at room temperature for 30 minutes prior to dosing the mice.
# 50 mg/kg of 25HC3S in vehicle or vehicle alone (N=10/group) were administered to mice once by intraperitoneal injection 2 hours prior to LPS delivery. A semi-lethal dose of LPS (5 mg/kg) was given by intravenous injection to the tail vein in order to induce an acute inflammatory response that mimics systemic sepsis-like conditions.
# Mice were monitored for survival for 6 days after 25HC3S and LPS treatments. Animal checks for mortality were performed twice daily during the 6 day observation period. Animals were examined for any altered clinical signs, including gross motor and behavioral activity, and observable changes in appearance. […]
# [3] = system: liver function markers ALT, AST, ALK, LDH; experiment: Liver function markers in serum of mice overdosed with APAP (350 mg/kg); conditions: vehicle plus 25 mg/kg 25HC3S 0.5 hours after overdose, 24 hours after treatment
# Experimental: The ability of 25HC3S to treat symptoms of APAP overdose was examined. 12-week-old male C57BL/6J mice were fasted overnight and injected (intraperitoneally) with APAP: 600 mg/kg (high dose) for mortality studies or 350 mg/kg (low dose) for liver function and gene studies. Control mice received only vehicle (20% (v/v) a propylene glycol, 4% (w/v) cyclodextrin (powdered hydroxypropyl beta cyclodextrin in sterile 10% (w/v) glucose.
# A composition comprising 25 mg/kg of 25HC3S sodium salt in vehicle was administered intravenously to the experimental mice 0.5 hours after APAP administration. Mortality was monitored in the high dose mice. In the low dose mice, the liver function markers aspartate aminotransferase (AST), alanine aminotransferase (ALT), alkaline phosphatase (ALK) and lactate dehydrogenase (LDH), were measured in serum. Impacts on gene expression were determined by Quantitative Real-time PCR. Membrane potentials were measured using JC1 staining and flow cytometry.
# One group of low dose mice received treatment with 25HC3S in vehicle 0.5 hours after the overdose. In this group, liver function markers were assessed 24 hours after treatment. […] However, in mice treated with vehicle alone, the values were […] and in mice treated with vehicle plus 25 mg/kg of 25HC3S, the values were near normal. The differences in the measured values were statistically significant.
compound,measurement,setting,value
"C[C@H](CCCC(C)(C)O)[C@H]1CC[C@H]2[C@@H]3CC=C4C[C@@H](OS(=O)(=O)[O-])CC[C@]4(C)[C@H]3CC[C@]12C.[Na+] [25HC3S, 5-cholesten-3, 25-diol, 3-sulfate]",Survival,"[1]; Study 1, 15.78 Gy, by Day 7",45%
same,"mortality, treatment vs vehicle group","[1]; Study 1, 15.78 Gy, sc once daily for 7 days from Day 1",not significant
same,average number of clinical signs/mice vs vehicle-treated group,"[1]; Study 1, Days 5-22, animals that survived the entire in-life portion",statistically lower
same,Survival improved by (vs vehicle),"[1]; Study 2, 15.16 Gy",18.75%
same,Survival,"[1]; Study 2, 15.16 Gy, sc doses on Day 1 and Day 4, 50 mg/kg/dose",81.25%
same,mice that had died,[2],40%
same,"liver function markers ALT, AST and LDH",[3],near normal
